From US20220041603A1, “SRC INHIBITOR COMPOUNDS FOR SKELETAL MUSCLE MODULATION, METHODS AND USES THEREOF” (SOCIETE DES PRODUITS NESTLE S.A., priority 2018, published 2022)

Experiments:
[1] = system: human primary muscle cells; assay: Assay for myogenesis (troponin-T myotube detection); assay type: cell-based; details: human primary myoblasts, donor 8 and donor 4; dose dependent response; compound treatment 96 hours after differentiation induction
Source text: The inventors developed a high content screening to test in vitro compounds on human primary adult muscle cells. Human Skeletal Muscle Myoblasts (HSMM) were purchased from Lonza (https://bioscience.lonza.com). These cells were isolated from the upper arm or leg muscle tissue of normal donors and used after the second passage.
This secondary assay focused on the later stage of myogenesis when the muscle cells fuse together and form multinucleated myotubes. This assay was based on the detection of the mature troponin-T protein that is expressed in myotubes. In particular, two measurements were made:
Fusion factor, which is the % of nuclei that are inside the multinucleated myotubes compare to total nuclei and give a readout for muscle cell differentiation.
Myotube area, which is measured based on the Troponin T staining and give a readout on the myotube size and muscle fiber growth.
After one day, the differentiation is induced by a medium change. For treatment, compounds were directly added to the myoblast cultures for 96 hours. Myotubes were stained for TroponinT expression using antibodies directed against TroponinT and counterstained with Hoechst 33342 to visualize cell nuclei. Image acquisition was performed using the ImageXpress (Molecular Devices) platform. Custom module analysis based on Multi-Wavelength Cell Scoring of the MetaXpress software was used for quantification.

[2] = system: human primary muscle stem cells; assay: Assay for muscle stem cell commitment (Pax7/MyoD immunofluorescence high content screening); assay type: cell-based; details: Human Skeletal Muscle Myoblasts, donor 8 and donor 4, dose-dependent response, cultures grown 96 hours; for proportion of MyoD+ cells as percent of total cell number (myogenic commitment): MyoD+ = Pax7-/MyoD+ cells; for number of Pax7+ cells (expansion of human primary muscle stem cells): Pax7+ regardless of MyoD expression
Method: The inventors developed a high content screening to test in vitro compounds on human primary adult muscle cells. Human Skeletal Muscle Myoblasts (HSMM) were purchased from Lonza (https://bioscience.lonza.com). These cells were isolated from the upper arm or leg muscle tissue of normal donors and used after the second passage. Several donors were tested to ensure cell viability and purity before selecting the final donors, which are a person (Donor 8) and a person (Donor 4).
The primary screening assay was based on the high content detection of two important myogenic regulatory factors (Pax7 and MyoD) by immunofluorescence. Pax7 and MyoD are the major hallmarks of muscle stem cell stemness and commitment and can be used to monitor muscle stem cell progeny. In particular, Pax7 marks early amplification while MyoD is a later marker for myogenic commitment, and combinations of these markers define the different states of proliferation, differentiation and self-renewal.
Human primary myoblasts were seeded in 384 well plates at a density of 1′000 cells per well in skeletal muscle growth medium (SKM-M, AMSbio). For treatment, compounds were directly added to the myoblast cultures 16 hours after initial plating. All cultures were then grown for 96 hours. Cells were stained for Pax7 and MyoD expression using antibodies directed against Pax7 and MyoD and counterstained with Hoechst 33342 to visualize cell nuclei. […] Pax7+ cells are defined as cells that express Pax7 regardless of MyoD expression. Image acquisition was performed using the ImageXpress (Molecular Devices) platform. Custom module analysis based on Multi-Wavelength Cell Scoring of the MetaXpress software was used for quantification.

Structure (SMILES)	myogenic differentiation (Fusion Factor, percent nuclei within troponinT-positive myotubes) [1]	proportion of MyoD+ cells as percent of total cell number (myogenic commitment) [2]	number of Pax7+ cells (expansion of human primary muscle stem cells) [2]	myofiber growth (area covered by troponinT-positive myotubes) [1]
Cc1ccc(-c2nn(C(C)(C)C)c3ncnc(N)c23)cc1 [PP1, 1-(1,1-Dimethylethyl)-3-(4-methylphenyl)-1H-pyrazolo[3,4-d]pyrimidin-4-amine]	enhances	increase	increase	–
CC(C)(C)n1nc(-c2cccc3ccccc23)c2c(N)ncnc21 [Napthyl-PP1, 1-(1,1-Dimethylethyl)-3-(1-naphthalenyl)-1H-pyrazolo[3,4-d]pyrimidin-4-amine]	enhances	increase	increase	enhances
CC(C)(C)n1nc(-c2ccc(Cl)cc2)c2c(N)ncnc21 [PP2, 3-(4-Chlorophenyl)-1-(1,1-dimethylethyl)-1H-pyrazolo[3,4-d]pyrimidin-4-amine]	enhances	increase	increase	–
